Results as given in ChEMBL document CHEMBL2057131, “Novel steroid inhibitors of glucose 6-phosphate dehydrogenase” (J Med Chem, 2012).
≈ marks a conversion by molar mass, not a printed value.

Tests used:
[1] = biological target: T1, Glucose-6-phosphate 1-dehydrogenase (Homo sapiens, UniProt P11413); experiment: Inhibition of human recombinant N-terminal His tagged G6PD expressed in Escherichia coli JM109 (DE3) cells assessed as production of NADPH after 30 mins by Amplite fluorimetric assay
[2] = biological target: T1, Glucose-6-phosphate 1-dehydrogenase; experiment: Inhibition of G6PD in HEK293T cells assessed as accumulation of 6-phosphogluconate after 5 hrs by LC-MS/MS analysis using 6-aminonicotinamide; type: cell-based, HEK-293T
[3] = biological target: T1, Glucose-6-phosphate 1-dehydrogenase; experiment: Ratio of IC50 for G6PD in HEK293T cells to IC50 for human recombinant G6PD expressed in Escherichia coli JM109 (DE3) cells; details: HEK-293T
[4] = Aqueous solubility of the compound in phosphate buffer by turbidimetric method; type: physicochemical
[5] = Permeability of the compound from apical to basolateral side of human Caco2 cells; type: ADME, cell-based; details: Caco-2, read-out: permeability
[6] = Efflux ratio of permeability of the compound from basolateral to apical side over apical to basolateral side of human Caco2 cells; type: ADME, cell-based; details: Caco-2

T1 sequence (P11413 whole entry): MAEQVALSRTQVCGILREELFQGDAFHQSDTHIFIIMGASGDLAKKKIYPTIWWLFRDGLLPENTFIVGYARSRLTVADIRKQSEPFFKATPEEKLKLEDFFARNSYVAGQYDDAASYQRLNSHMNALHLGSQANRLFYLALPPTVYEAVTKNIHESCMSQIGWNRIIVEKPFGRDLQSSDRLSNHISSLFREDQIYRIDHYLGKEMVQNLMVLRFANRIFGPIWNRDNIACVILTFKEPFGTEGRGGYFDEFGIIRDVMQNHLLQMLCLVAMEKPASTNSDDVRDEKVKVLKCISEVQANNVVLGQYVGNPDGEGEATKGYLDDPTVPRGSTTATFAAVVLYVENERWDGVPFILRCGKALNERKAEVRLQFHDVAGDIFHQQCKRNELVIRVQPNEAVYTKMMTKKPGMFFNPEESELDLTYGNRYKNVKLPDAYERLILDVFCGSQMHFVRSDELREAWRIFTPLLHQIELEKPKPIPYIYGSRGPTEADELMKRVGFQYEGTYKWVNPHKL

SMILES	IC50 [1] [µM]	other results
CC(=O)[C@H]1CC[C@H]2[C@@H]3CC[C@H]4C[C@@H](O)CC[C@]4(C)[C@H]3CC[C@]12C [SEPRANOLONE]	4.3	–
C[C@]12CC[C@H](O)C[C@@H]1CC[C@@H]1[C@@H]2CC[C@@]2(C)[C@H]1CC[C@@]21CO1	> 200	–
C[C@]12CC[C@H](O)C[C@@H]1CC[C@@H]1[C@@H]2CC[C@]2(C)C(=O)[C@H](Br)C[C@@H]12 [16.ALPHA.-BROMOEPIANDROSTERONE]	20.8	–
COC(=O)N[C@H]1CC[C@@]2(C)[C@@H](CC[C@@H]3[C@@H]2CC[C@]2(C)C(=O)CC[C@@H]32)C1	1.5	IC50 [2]: 7.8 µM; Ratio IC50 [3]: 5.2; solubility kinetic [4]: > 100 µM
CC(=O)[C@H]1CC[C@H]2[C@@H]3CC[C@H]4C[C@@H](NS(=O)(=O)N(C)C)CC[C@]4(C)[C@H]3CC[C@]12C	37.8	–
C[C@]12CC[C@@H](NS(C)(=O)=O)C[C@@H]1CC[C@@H]1[C@@H]2CC[C@]2(C)C(=O)CC[C@@H]12	> 200	–
C[C@]12CC[C@@H](NS(N)(=O)=O)C[C@@H]1CC[C@@H]1[C@@H]2CC[C@]2(C)C(=O)CC[C@@H]12	> 200	–
CO[C@]1(C(C)=O)CC[C@H]2[C@@H]3CC[C@H]4C[C@@H](O)CC[C@]4(C)[C@H]3CC[C@@]21C	> 200	–
CCCCNC(=O)N[C@H]1CC[C@@]2(C)[C@@H](CC[C@@H]3[C@@H]2CC[C@]2(C)C(=O)CC[C@@H]32)C1	1.7	–
CC(=O)[C@H]1CC[C@H]2[C@@H]3CC[C@H]4C[C@@H](N)CC[C@]4(C)[C@H]3CC[C@]12C	> 200	–
CN(C)C(=O)N[C@H]1CC[C@@]2(C)[C@@H](CC[C@@H]3[C@@H]2CC[C@]2(C)C(=O)CC[C@@H]32)C1	> 200	–
CNC(=O)N[C@H]1CC[C@@]2(C)[C@@H](CC[C@@H]3[C@@H]2CC[C@]2(C)C(=O)CC[C@@H]32)C1	12.2	–
CC(=O)[C@H]1CC[C@H]2[C@@H]3CC[C@H]4C[C@@H](NC(N)=O)CC[C@]4(C)[C@H]3CC[C@]12C	> 100	–
CC(=O)N[C@H]1CC[C@@]2(C)[C@@H](CC[C@@H]3[C@@H]2CC[C@]2(C)C(=O)CC[C@@H]32)C1	128	–
C[C@]12CC[C@H](O)C[C@@H]1CC[C@H]1[C@@H]3CC[C@H](C(=O)CO)[C@@]3(C)CC(=O)[C@@H]12	6.3	–
CCNC(=O)NC1CC[C@@]2(C)[C@@H](CC[C@@H]3[C@@H]2CC[C@]2(C)[C@@H](C(=O)CO)CC[C@@H]32)C1 (stereo not given in full)	34.9	–
C[C@]12CC[C@H](O)C[C@@H]1CC[C@@H]1[C@@H]2CC[C@]2(C)[C@@H](C(=O)CCl)CC[C@@H]12	9.3	–
C[C@]12CC[C@H](NC(N)=O)C[C@@H]1CC[C@@H]1[C@@H]2CC[C@]2(C)C(=O)CC[C@@H]12	5	–
C/C(=N/O)[C@H]1CC[C@H]2[C@@H]3CC[C@H]4C[C@@H](O)CC[C@]4(C)[C@H]3CC[C@]12C	> 200	–
C[C@]12CC[C@@H](O)C[C@@H]1CC[C@@H]1[C@@H]2CC[C@]2(C)C(=O)CC[C@@H]12 [ANDROSTERONE]	> 200	–
CC(=O)N[C@H]1CC[C@@]2(C)[C@@H](CC[C@@H]3[C@@H]2CC[C@]2(C)[C@@H](C(C)=O)CC[C@@H]32)C1	> 200	–
CC(=O)[C@H]1CC[C@H]2[C@@H]3CC[C@H]4C[C@@H](NC(=O)N(C)C)CC[C@]4(C)[C@H]3CC[C@]12C	> 200	–
CC(=O)[C@H]1CC[C@H]2[C@@H]3CC[C@H]4C[C@@H](NS(=O)(=O)c5ccccc5)CC[C@]4(C)[C@H]3CC[C@]12C	20.3	–
C[C@]12CC[C@H](O)CC1=CC[C@@H]1[C@@H]2CC[C@@]2(C)[C@H]1CC[C@@]21CO1	> 200	–
CCNC(=O)N[C@@H]1CC[C@@]2(C)[C@@H](CC[C@@H]3[C@@H]2CC[C@]2(C)C(=O)CC[C@@H]32)C1	> 200	–
CC(=O)[C@H]1CC[C@H]2[C@@H]3CC[C@H]4C[C@@H](NS(N)(=O)=O)CC[C@]4(C)[C@H]3CC[C@]12C	2	IC50 [2]: 9.2 µM; Ratio IC50 [3]: 4.6; solubility kinetic [4]: 10 µM (≈ 3.97 µg/mL); Papp A→B [5]: 2.1 ×10⁻⁶ cm/s; efflux ratio [6]: 0.53
CCS(=O)(=O)N[C@H]1CC[C@@]2(C)[C@@H](CC[C@@H]3[C@@H]2CC[C@]2(C)[C@@H](C(C)=O)CC[C@@H]32)C1	11	–

SMILES	IC50 [1] [µM]	other results
CC(=O)OCC(=O)[C@H]1CC[C@H]2[C@@H]3CC[C@H]4C[C@@H](O)CC[C@]4(C)[C@H]3CC[C@]12C	> 200	–
CC(=O)[C@@]12O[C@@H]1C[C@H]1[C@@H]3CC[C@H]4C[C@@H](O)CC[C@]4(C)[C@H]3CC[C@@]12C	> 200	–
CC(=O)[C@H]1CC[C@H]2[C@@H]3CC[C@H]4C[C@H](O)CC[C@]4(C)[C@H]3CC[C@]12C [BREXANOLONE]	66	–
COC(=O)N[C@H]1CC[C@@]2(C)[C@@H](CC[C@@H]3[C@@H]2CC[C@]2(C)[C@@H](C(=O)CO)CC[C@@H]32)C1	41.6	–
CCS(=O)(=O)N[C@H]1CC[C@@]2(C)[C@@H](CC[C@@H]3[C@@H]2CC[C@]2(C)C(=O)CC[C@@H]32)C1	70.5	–
C[C@]12CCCC[C@@H]1CC[C@@H]1[C@@H]2CC[C@]2(C)C(=O)CC[C@@H]12	> 200	–
C[C@]12CC[C@H](O)C[C@@H]1CC[C@@H]1[C@@H]2CC[C@]2(C)C(=O)CC[C@@H]12 [EPIANDROSTERONE]	9.4	–
C[C@]12CC[C@H](NS(C)(=O)=O)C[C@@H]1CC[C@@H]1[C@@H]2CC[C@]2(C)[C@@H](C(=O)CO)CC[C@@H]12	3.8	IC50 [2]: 35.2 µM; Ratio IC50 [3]: 9.2; solubility kinetic [4]: 10 µM (≈ 4.12 µg/mL); Papp A→B [5]: 17.4 ×10⁻⁶ cm/s; efflux ratio [6]: 0.3
C[C@]12CC[C@H](O)CC1=CC[C@@H]1[C@@H]2CC[C@]2(C)C(=O)[C@H](O)C[C@@H]12	15.8	–
C[C@]12CC[C@H](NS(=O)(=O)c3ccccc3)C[C@@H]1CC[C@@H]1[C@@H]2CC[C@]2(C)C(=O)CC[C@@H]12	9.9	–
C[C@]12CC[C@H](O)C[C@@H]1CC[C@@H]1[C@@H]2CC[C@]2(C)[C@@H](C(=O)CBr)CC[C@@H]12	2.5	–
C[C@]12CC[C@H](NS(C)(=O)=O)C[C@@H]1CC[C@@H]1[C@@H]2CC[C@]2(C)C(=O)CC[C@@H]12	6.6	–
C[C@]12CC[C@H](N)C[C@@H]1CC[C@@H]1[C@@H]2CC[C@]2(C)C(=O)CC[C@@H]12	> 200	–
C[C@]12CC[C@@H](N)C[C@@H]1CC[C@@H]1[C@@H]2CC[C@]2(C)C(=O)CC[C@@H]12	> 200	–
C[C@]12CC[C@H](O)C[C@@H]1CC[C@@H]1[C@@H]2CC[C@]2(C)/C(=N/O)CC[C@@H]12	> 200	–
COC(=O)N[C@H]1CC[C@@]2(C)[C@@H](CC[C@@H]3[C@@H]2CC[C@]2(C)[C@@H](C(C)=O)CC[C@@H]32)C1	> 200	–
CC(=O)C[C@H]1CC[C@H]2[C@@H]3CC[C@H]4C[C@@H](O)CC[C@]4(C)[C@H]3CC[C@]12C	> 200	–
C[C@]12CC[C@H](O)C[C@@H]1CC[C@@H]1[C@@H]2CC[C@@]2(C)[C@H]1CC[C@]2(O)C(=O)CO	5.2	–
C[C@]12CC[C@@H](O)C[C@@H]1CC[C@@H]1[C@@H]2CC[C@]2(C)[C@@H](C(=O)CO)CC[C@@H]12	31.6	–
C[C@]12CC[C@H](NS(N)(=O)=O)C[C@@H]1CC[C@@H]1[C@@H]2CC[C@]2(C)C(=O)CC[C@@H]12	1.2	IC50 [2]: 17.4 µM; Ratio IC50 [3]: 14.5; solubility kinetic [4]: 30 µM (≈ 11.1 µg/mL); Papp A→B [5]: 31.8 ×10⁻⁶ cm/s; efflux ratio [6]: 0.66
CC(=O)[C@H]1CC[C@H]2[C@@H]3CC=C4C[C@@H](O)CC[C@]4(C)[C@H]3CC[C@]12C [PREGNENOLONE]	81.4	–
CC(=O)[C@@]1(O)CC[C@H]2[C@@H]3CC[C@H]4C[C@@H](O)CC[C@]4(C)[C@H]3C(=O)C[C@@]21C	47	–
C[C@]12CC[C@H](O)CC1=CC[C@@H]1[C@@H]2CC[C@]2(C)C(=O)CC[C@@H]12 [PRASTERONE]	11.3	IC50 [2]: 24.9 µM; Ratio IC50 [3]: 2.2; solubility kinetic [4]: > 100 µM
C[C@]12CC[C@H]3[C@@H](CC=C4C[C@@H](O)CC[C@@]43C)[C@@H]1CC[C@@H]2C(=O)CO	5.3	–
CC(=O)[C@H]1CC[C@H]2[C@@H]3CC[C@H]4C[C@@H](O)CC[C@]4(C)[C@H]3C(=O)C[C@]12C	15.8	–
C[C@]12CC[C@H](O)C[C@@H]1CC[C@@H]1[C@@H]2CC[C@@]2(C)[C@H]1CC[C@@]21CCO1	> 200	–
C[C@]12CC[C@H](O)CC1=CC[C@@H]1[C@@H]2CC[C@@]2(C)[C@H]1CC[C@@]21CCO1	> 200	–
